# Source: ChEMBL document CHEMBL4602617, “Discovery and optimization of heteroaryl piperazines as potent and selective PI3Kδ inhibitors” (Bioorg Med Chem Lett, 2020)
# Key:
# [1] = biological target: Serine/threonine-protein kinase PAK 3 (Homo sapiens, UniProt O75914); assay: Inhibition of recombinant full length human His-tagged PAK3 expressed in baculovirus expression system using serine/threonine-20 peptide as substrate incubated for 60 mins in presence of ATP by Z'-LYTE assay
# [2] = biological target: Receptor-type tyrosine-protein kinase FLT3 (Homo sapiens, UniProt P36888, D835Y); assay: Inhibition of recombinant human His-tagged FLT3 D835Y mutant cytoplasmic domain expressed in baculovirus expression system after 1 using tyrosine 2 as substrate after 1 hr in presence of ATP by ZYLTE assay
# Rattus norvegicus = species: Rattus norvegicus; assay: Displacement of [3H]TBOB from GABAA chloride channel receptor in Wistar rat whole brain membranes at 10 uM measured after 120 mins by radiometric scintillation analysis relative to control; type: cell membranes; settings: Membrane
# [3] = biological target: Tyrosine-protein kinase Fgr (Homo sapiens, UniProt P09769); assay: Inhibition of recombinant full length human C-terminal His-tagged FGR expressed in baculovirus expression system using tyrosine-2 peptide as substrate incubated for 60 mins in presence of ATP by Z'-LYTE assay
# [4] = biological target: Melanocortin receptor 4 (Homo sapiens) (UniProt P32245); assay: Displacement of [125I]NDP-alpha-MSH from full length human recombinant MC4 receptor expressed in HEK293 cells at 10 uM measured after 120 mins by radiometric scintillation analysis relative to control; type: cell-based
# [5] = biological target: Serine/threonine-protein kinase MRCK beta (Homo sapiens, UniProt Q9Y5S2); assay: Inhibition of recombinant human His-tagged MRCKB catalytic domain expressed in baculovirus expression system using serine/threonine-13 peptide as substrate incubated for 60 mins in presence of ATP by Z'-LYTE assay
# CDK2/Cyclin A2 = CDK2/Cyclin A2 (Homo sapiens, UniProt P24941); assay: Inhibition of recombinant full length human His-tagged CDK2/Cyclin A expressed in baculovirus expression system using serine/threonine-12 peptide as substrate incubated for 60 mins in presence of ATP by Z'-LYTE assay
# [6] = biological target: Mitogen-activated protein kinase 14 (Homo sapiens, UniProt Q16539); assay: Inhibition of recombinant full length GST-tagged human inactive MAPK14 expressed in Escherichia coli using Ser/Thr 04 as substrate after 1 hr in presence of ATP by Z'LYTE assay
# [7] = biological target: Serine/threonine-protein kinase 26 (Homo sapiens, UniProt Q9P289); assay: Inhibition of recombinant full length human GST-tagged MST4 expressed in baculovirus expression system using serine/threonine-7 peptide as substrate incubated for 60 mins in presence of ATP by Z'-LYTE assay
# [8] = biological target: Alpha-2A adrenergic receptor (Homo sapiens) (UniProt P08913); assay: Displacement of [3H]rauwolscine from full-length recombinant human alpha2A receptor expressed in CHOK1 cells at 10 uM measured after 60 mins by scintillation counting method relative to control; type: cell-based; settings: CHO-K1
# [9] = biological target: Serine/threonine-protein kinase PAK 5 (Homo sapiens, UniProt Q9P286); assay: Inhibition of recombinant human His-tagged PAK7 catalytic domain (425 to 719 residues) expressed in baculovirus expression system using serine/threonine-20 peptide as substrate incubated for 60 mins in presence of ATP by Z'-LYTE assay
# [10] = biological target: Platelet-activating factor receptor (Homo sapiens) (UniProt P25105); assay: Inhibition of human PAF at 10 uM relative to control
# [11] = biological target: cGMP-dependent protein kinase 1 (Homo sapiens, UniProt Q13976); assay: Inhibition of recombinant full length human GST-tagged PRKG1 expressed in baculovirus expression system using serine/threonine-01 peptide as substrate incubated for 60 mins in presence of ATP by Z'-LYTE assay
# [12] = biological target: Serine/threonine-protein kinase pim-1 (Homo sapiens, UniProt P11309); assay: Inhibition of recombinant full length human His-tagged PIM1 expressed in baculovirus expression system using serine/threonine-7 peptide as substrate incubated for 60 mins in presence of ATP by Z'-LYTE assay
# [13] = biological target: Vascular endothelial growth factor receptor 2 (Homo sapiens, UniProt P35968); assay: Inhibition of recombinant human His-tagged KDR (789 to 1356 residues) expressed in baculovirus expression system using Tyr1 as substrate incubated for 1 hr in presence of ATP by Z'-LYTE assay
# [14] = biological target: MAP kinase-activated protein kinase 5 (Homo sapiens, UniProt Q8IW41); assay: Inhibition of recombinant full length human His-tagged PRAK expressed in baculovirus expression system using serine/threonine-4 peptide as substrate incubated for 60 mins in presence of ATP by Z'-LYTE assay
# [15] = biological target: Tyrosine-protein kinase Yes (Homo sapiens, UniProt P07947); assay: Inhibition of full length recombinant GST-tagged human YES1 expressed in baculovirus expression system using tyr 02 peptide as substrate after 1 hr in presence of ATP by Z'-LYTE assay
# [16] = biological target: G protein-coupled receptor kinase 6 (Homo sapiens, UniProt P43250); assay: Inhibition of recombinant full length human GST-tagged GRK6 expressed in baculovirus expression system using serine/threonine-16 peptide as substrate incubated for 60 mins in presence of ATP by Z'-LYTE assay
# [17] = biological target: Beta-1 adrenergic receptor (Homo sapiens) (UniProt P08588); assay: Displacement of [125I]cyanopindolol from full-length recombinant human beta1 adrenergic receptor expressed in CHOK1 cells at 10 uM measured after 120 mins by scintillation counting method relative to control; type: cell-based; settings: CHO-K1
# [18] = biological target: Serine/threonine-protein kinase Nek4 (Homo sapiens, UniProt P51957); assay: Inhibition of recombinant full length human GST-tagged NEK4 expressed in baculovirus expression system using serine/threonine-7 peptide as substrate incubated for 60 mins in presence of ATP by Z'-LYTE assay
# [19] = biological target: Mitogen-activated protein kinase kinase kinase kinase 4 (Homo sapiens, UniProt O95819); assay: Inhibition of recombinant GST-tagged human MAP4K4 catalytic domain expressed in baculovirus expression system using Ser/Thr 07 peptide as substrate after 1 hr in presence of ATP by Z'-LYTE assay
# [20] = biological target: Platelet-derived growth factor receptor beta (Homo sapiens, UniProt P09619); assay: Inhibition of recombinant human His-tagged PDGFRbeta cytoplasmic domain expressed in baculovirus expression system using tyrosine-4 peptide as substrate incubated for 60 mins in presence of ATP by Z'-LYTE assay
# [21] = biological target: Casein kinase II subunit alpha (Homo sapiens, UniProt P68400); assay: Inhibition of recombinant human full-length His-tagged CSNK2A1 expressed in baculovirus expression system using FRET-labeled Ser/Thr 11 peptide as substrate measured after 1 hr in presence of ATP by Z'-lyte assay
# [22] = biological target: Phosphatidylinositol 4-phosphate 3-kinase C2 domain-containing subunit beta (Homo sapiens, UniProt O00750); assay: Inhibition of recombinant GST-tagged human PIK3C2B catalytic domain expressed in baculovirus expression system using PI as substrate after 1 hr in presence of ATP by Adapta assay
# [23] = biological target: Protein kinase C zeta type (Homo sapiens, UniProt Q05513); assay: Inhibition of recombinant full length human PKCzeta expressed in baculovirus expression system using serine/threonine-7 peptide as substrate incubated for 60 mins in presence of ATP by Z'-LYTE assay
# Alpha-2A adrenergic receptor (Homo sapiens), sequence (P08913 whole entry, the tested form may be a part): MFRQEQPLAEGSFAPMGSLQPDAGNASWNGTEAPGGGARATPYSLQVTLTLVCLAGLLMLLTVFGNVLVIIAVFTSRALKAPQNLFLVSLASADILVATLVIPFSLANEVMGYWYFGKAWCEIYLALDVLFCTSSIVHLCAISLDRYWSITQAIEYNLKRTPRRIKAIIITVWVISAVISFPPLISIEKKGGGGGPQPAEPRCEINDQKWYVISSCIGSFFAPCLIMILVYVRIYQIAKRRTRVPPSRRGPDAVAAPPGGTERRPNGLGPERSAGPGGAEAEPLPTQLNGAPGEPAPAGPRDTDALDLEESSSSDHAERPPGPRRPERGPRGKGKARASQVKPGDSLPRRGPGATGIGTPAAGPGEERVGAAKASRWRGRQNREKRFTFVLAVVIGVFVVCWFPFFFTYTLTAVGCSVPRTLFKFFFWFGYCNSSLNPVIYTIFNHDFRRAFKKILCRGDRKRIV
# Serine/threonine-protein kinase PAK 5, sequence (Q9P286 whole entry, the tested form may be a part): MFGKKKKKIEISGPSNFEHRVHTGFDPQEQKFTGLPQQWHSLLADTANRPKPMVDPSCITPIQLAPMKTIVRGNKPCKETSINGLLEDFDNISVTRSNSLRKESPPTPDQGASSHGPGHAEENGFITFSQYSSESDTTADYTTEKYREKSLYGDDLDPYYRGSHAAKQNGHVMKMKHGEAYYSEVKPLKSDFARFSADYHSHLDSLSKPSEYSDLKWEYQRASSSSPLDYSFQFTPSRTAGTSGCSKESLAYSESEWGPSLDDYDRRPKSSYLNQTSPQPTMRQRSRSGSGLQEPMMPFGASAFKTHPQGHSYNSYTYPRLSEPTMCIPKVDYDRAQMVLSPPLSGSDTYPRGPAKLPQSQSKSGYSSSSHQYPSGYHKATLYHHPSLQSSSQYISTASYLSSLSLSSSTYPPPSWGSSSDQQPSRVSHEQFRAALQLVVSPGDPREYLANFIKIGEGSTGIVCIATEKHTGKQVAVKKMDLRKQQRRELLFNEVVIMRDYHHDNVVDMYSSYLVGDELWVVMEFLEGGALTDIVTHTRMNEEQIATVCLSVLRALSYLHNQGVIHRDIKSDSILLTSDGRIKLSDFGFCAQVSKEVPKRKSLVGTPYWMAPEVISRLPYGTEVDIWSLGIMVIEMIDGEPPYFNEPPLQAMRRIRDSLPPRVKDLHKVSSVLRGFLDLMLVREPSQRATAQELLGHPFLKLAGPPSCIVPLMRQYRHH
# Platelet-derived growth factor receptor beta, sequence (P09619 whole entry, the tested form may be a part): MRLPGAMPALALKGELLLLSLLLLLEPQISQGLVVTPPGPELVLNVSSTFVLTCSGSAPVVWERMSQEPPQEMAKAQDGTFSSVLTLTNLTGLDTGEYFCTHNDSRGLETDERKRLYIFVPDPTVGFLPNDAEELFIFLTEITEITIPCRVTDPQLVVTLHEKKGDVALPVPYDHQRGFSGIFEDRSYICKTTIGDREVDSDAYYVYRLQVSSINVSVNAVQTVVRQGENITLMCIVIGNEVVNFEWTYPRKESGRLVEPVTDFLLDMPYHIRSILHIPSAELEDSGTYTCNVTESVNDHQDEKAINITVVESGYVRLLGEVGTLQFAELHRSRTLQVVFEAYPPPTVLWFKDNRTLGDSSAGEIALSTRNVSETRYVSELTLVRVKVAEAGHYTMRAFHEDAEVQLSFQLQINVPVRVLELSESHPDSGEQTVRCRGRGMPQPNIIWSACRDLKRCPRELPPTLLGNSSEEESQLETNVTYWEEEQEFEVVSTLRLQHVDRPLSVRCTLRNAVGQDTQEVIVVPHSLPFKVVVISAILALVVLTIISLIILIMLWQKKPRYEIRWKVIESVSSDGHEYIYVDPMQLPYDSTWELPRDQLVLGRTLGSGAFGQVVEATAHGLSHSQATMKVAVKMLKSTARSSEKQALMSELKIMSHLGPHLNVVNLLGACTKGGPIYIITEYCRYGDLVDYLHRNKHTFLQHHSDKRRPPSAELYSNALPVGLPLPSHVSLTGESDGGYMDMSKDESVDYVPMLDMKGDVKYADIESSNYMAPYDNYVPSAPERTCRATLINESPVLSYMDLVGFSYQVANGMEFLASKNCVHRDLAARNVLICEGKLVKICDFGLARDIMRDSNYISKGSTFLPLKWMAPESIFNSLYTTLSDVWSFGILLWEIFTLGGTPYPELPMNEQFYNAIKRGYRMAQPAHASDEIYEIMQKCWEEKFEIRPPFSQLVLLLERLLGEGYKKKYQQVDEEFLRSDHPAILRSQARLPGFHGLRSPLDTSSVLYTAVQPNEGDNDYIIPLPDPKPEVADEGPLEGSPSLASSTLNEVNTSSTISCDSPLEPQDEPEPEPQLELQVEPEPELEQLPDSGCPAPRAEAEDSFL
# Phosphatidylinositol 4-phosphate 3-kinase C2 domain-containing subunit beta, sequence (O00750 whole entry, the tested form may be a part): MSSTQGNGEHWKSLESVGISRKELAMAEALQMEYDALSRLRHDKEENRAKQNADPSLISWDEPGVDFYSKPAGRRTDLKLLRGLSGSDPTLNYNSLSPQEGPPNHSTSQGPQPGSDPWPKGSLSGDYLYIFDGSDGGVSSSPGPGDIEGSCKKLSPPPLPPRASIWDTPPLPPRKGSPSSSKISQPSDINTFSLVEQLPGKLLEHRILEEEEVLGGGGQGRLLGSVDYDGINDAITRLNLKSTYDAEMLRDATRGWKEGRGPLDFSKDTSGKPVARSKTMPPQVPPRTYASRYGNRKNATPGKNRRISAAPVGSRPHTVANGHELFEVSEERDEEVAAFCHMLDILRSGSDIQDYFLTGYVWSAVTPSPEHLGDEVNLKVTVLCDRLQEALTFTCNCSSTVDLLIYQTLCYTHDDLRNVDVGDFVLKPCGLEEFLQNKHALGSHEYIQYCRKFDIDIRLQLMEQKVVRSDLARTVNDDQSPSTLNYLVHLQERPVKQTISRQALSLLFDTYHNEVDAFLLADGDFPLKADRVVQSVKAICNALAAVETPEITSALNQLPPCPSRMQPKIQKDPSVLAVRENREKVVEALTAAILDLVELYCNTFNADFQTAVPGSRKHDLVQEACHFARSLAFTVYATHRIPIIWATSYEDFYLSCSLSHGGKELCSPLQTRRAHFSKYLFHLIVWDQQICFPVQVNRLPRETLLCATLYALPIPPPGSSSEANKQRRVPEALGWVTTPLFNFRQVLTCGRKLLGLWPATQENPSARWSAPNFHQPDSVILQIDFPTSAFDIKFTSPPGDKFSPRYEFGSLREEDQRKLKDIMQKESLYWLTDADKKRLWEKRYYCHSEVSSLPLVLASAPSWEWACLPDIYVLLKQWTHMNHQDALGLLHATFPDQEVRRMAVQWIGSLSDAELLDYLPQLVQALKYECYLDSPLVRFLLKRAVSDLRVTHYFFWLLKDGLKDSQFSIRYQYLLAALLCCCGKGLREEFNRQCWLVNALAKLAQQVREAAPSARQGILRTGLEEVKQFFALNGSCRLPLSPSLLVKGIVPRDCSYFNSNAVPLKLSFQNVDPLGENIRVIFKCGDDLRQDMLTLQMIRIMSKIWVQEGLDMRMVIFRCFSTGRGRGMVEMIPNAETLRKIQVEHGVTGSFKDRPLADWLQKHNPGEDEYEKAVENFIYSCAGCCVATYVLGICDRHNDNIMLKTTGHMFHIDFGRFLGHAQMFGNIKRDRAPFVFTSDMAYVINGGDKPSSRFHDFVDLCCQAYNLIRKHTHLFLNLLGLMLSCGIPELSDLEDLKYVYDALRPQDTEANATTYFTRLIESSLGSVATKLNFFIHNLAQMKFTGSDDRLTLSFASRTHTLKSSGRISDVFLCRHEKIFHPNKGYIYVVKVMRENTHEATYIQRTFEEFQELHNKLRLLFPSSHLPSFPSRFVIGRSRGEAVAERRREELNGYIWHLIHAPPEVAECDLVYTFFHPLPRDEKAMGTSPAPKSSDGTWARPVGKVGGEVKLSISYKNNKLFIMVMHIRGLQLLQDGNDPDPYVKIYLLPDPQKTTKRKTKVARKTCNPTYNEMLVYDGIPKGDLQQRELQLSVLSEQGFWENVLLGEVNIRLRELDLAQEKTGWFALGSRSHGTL
# Mitogen-activated protein kinase 14, sequence (Q16539 whole entry): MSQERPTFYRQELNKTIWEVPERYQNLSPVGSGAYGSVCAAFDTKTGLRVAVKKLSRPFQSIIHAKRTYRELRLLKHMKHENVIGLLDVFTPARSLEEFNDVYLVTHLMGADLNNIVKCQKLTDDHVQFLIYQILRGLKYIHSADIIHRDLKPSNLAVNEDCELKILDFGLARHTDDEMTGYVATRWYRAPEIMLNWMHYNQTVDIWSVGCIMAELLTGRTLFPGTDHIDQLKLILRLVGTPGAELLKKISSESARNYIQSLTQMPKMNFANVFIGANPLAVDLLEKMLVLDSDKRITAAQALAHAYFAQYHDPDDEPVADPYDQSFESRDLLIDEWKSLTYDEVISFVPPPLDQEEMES
# Serine/threonine-protein kinase pim-1, sequence (P11309 whole entry, the tested form may be a part): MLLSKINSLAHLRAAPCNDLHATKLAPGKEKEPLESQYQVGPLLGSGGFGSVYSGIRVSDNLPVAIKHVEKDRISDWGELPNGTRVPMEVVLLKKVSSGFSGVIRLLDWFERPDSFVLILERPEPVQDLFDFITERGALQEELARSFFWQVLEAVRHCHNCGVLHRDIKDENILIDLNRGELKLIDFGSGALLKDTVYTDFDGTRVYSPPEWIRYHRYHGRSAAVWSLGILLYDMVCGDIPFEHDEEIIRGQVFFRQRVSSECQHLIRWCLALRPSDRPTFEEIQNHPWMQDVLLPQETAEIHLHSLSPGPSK
# MAP kinase-activated protein kinase 5, sequence (Q8IW41 whole entry): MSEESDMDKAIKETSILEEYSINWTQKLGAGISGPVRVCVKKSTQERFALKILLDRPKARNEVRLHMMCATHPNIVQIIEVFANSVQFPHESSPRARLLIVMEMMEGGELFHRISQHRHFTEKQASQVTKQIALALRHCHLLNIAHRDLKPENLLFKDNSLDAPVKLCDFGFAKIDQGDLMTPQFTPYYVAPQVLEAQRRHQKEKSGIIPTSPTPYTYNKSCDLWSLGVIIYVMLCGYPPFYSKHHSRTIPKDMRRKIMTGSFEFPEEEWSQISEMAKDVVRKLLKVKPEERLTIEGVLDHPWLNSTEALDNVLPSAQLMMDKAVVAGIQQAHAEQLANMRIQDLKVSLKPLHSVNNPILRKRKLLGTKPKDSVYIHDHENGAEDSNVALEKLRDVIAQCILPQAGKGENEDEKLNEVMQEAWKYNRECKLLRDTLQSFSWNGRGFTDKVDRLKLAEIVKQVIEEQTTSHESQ
smiles,measurement,setting,value
C[C@@H]1C[C@H]1C(=O)N1CCN(c2cnc(C#N)c(-c3cnn(C)c3)n2)C[C@H]1C,IC50,[1],> 100 µM
same,IC50,[2],> 100 µM
same,inhibition,Rattus norvegicus,-8%
same,IC50,[3],25.4 µM
same,inhibition,[4],5%
same,IC50,[5],> 100 µM
same,IC50,CDK2/Cyclin A2,> 100 µM
same,IC50,[6],> 100 µM
same,IC50,[7],> 100 µM
same,inhibition,[8],2%
same,IC50,[9],> 100 µM
same,inhibition,[10],-5%
same,IC50,[11],> 100 µM
same,IC50,[12],> 100 µM
same,IC50,[13],37.6 µM
same,IC50,[14],> 100 µM
same,IC50,[15],37 µM
same,IC50,[16],> 100 µM
same,inhibition,[17],4%
same,IC50,[18],> 100 µM
same,IC50,[19],26.3 µM
same,IC50,[20],> 100 µM
same,IC50,[21],> 100 µM
same,IC50,[22],40.5 µM
same,IC50,[23],> 100 µM
